Laboratory results published in patent publication US4618681A, “Aryl substituted 1H-4,5-dihydro-1,2,3-triazoles as anticonvulsants” (priority 1984, dated 1986).
Like-named read-outs stand apart in the source and are kept apart here.

Tests used:
[1] = Phase I anticonvulsant screening (MES and scMet tests); details: for Anticonvulsant Activity Group Classification: Phase I screening, MES and scMet tests, mouse; for signs of neurological deficit: at 600 mg/kg (compound 7) and 300 mg/kg (compound 12); for anticonvulsant potency: in words
[2] = mice
Description: (§1) The profile of anticonvulsant activity for each substance was established by five tests: one electrical and four chemical. The electrical test employed was the maximal electroshock seizure pattern test. […] Except for the sc Strych Test, these tests measure the ability of anticonvulsants to afford complete protection against threshold seizures induced by the subcutaneous injection of the CD97 of the convulsant agent.
(§2) All convulsants were administered subcutaneously into a loose fold of skin on the back of the neck in a volume of 0.01 ml/g body weight in mice; Metrazol was injected in a volume of 0.02 ml/10 g body weight in rats. The convulsant drugs were administered at the previously determined time of peak anticonvulsant action of the drug under study. […] Except for strychnine, absence of a five-second episode of clonic spasms (threshold seizure) was taken as protection. In the case of strychnine, complete abolition of the hindleg tonic extension was taken as protection.

[3] = Subcutaneous Metrazol Seizure Threshold Test (sc Met) in mice
Description: (§3) All animals were allowed free access to both food (S/L Custom Lab Diet-7) and water, except when they were removed from their cages for the experimental procedure.
(§4) The drugs were administered either orally or intraperitoneally in a volume of 0.01 ml/g body weight in mice and 0.04 ml/10 g in rats. All tests were conducted at the previously determined time of peak drug effect.
as §1, §2

[4] = Subcutaneous Metrazol Seizure Threshold Test (sc Met) in rats; assay type: in vivo, rats (male albino, Sprague Dawley); details: Rattus norvegicus, po; rats, p.o.; read-out: ED50 sc Met
Description: as §4, §1, §2

in vivo [5] = details: mice, i.p., 24 hour period
Description: (§5) The profile of toxicity for each test drug was established by the following procedures: firstly, the minimal neurotoxic dose (TD50) was determined by the rotorod procedure at the time of peak neurotoxic effect. When a normal mouse is placed on a knurled rod one inch in diameter rotating at a speed of six rpm it can maintain its equilibrium for long periods of time. Neurological deficit is indicated by inability of the mouse to maintain its equilibrium for one minute in each of three trials on this rotating rod. Neurological deficit in rats is indicated by ataxia, loss of placing response and muscle tone. […] These observations also provide preliminary information essential for the subsequent determination of the HD50 and LD50. The HD50 represents the median dose at which 50% of animals lose their righting reflex.

in vivo [6] = assay: in vivo; design: species or system mice
Description: as §5

[7] = mice, i.p.
Description: as §3, §4, §1

[8] = assay type: in vivo; details: Phase V, mice, i.p.
Description: as §1, §2

[9] = mice, i.p.; remark: listed apart in the source
Description: as §3, §4, §1, §2

[10] = mouse, in vivo
Description: as §4, §5

[11] = Phase V, mice, i.p.
Description: as §1, §2

Molecule: Clc1cccc(N2N=NCC2c2ccncc2)c1 (stereo not drawn) [Compound 12, 1-(m-chlorophenyl)-5-(4-pyridyl)-Δ^2-1,2,3-triazoline]
- protection ([1]; 300 mg/kg): 100%
- Anticonvulsant Activity Group Classification [1]: II (Class II compounds show anticonvulsant activity at doses greater than 100 mg/kg or show activity at 100 mg/kg which is not reinforced by similar activity at 300 mg/kg)
- signs of neurological deficit [1]: without any signs of neurological deficit

Molecule: picrotoxin
- sc CD97 of picrotoxin ([2]; subcutaneous): 3.15 mg/kg

Molecule: CCc1ccc(N2N=NCC2c2ccccc2Cl)cc1 (stereo not drawn) [Compound 3, 1-(p-Ethylphenyl)-5-(o-chlorophenyl)-Δ^2-1,2,3-triazoline]
- Anticonvulsant Activity Group Classification [1]: II (Class II compounds show anticonvulsant activity at doses greater than 100 mg/kg or show activity at 100 mg/kg which is not reinforced by similar activity at 300 mg/kg)

Molecule: CCCC(CCC)C(=O)O [Valproate, valproate]
- ED50 ([3]; Mus musculus, ip, read-out: ED50 sc Met): 149 mg/kg
- ED50 ([3]; Mus musculus, po, read-out: ED50 scMet): 388 mg/kg
- Time of Test / time of peak effect (TPE), sc Met ([3]; mice, i.p.): 1/4
- ED50 [4]: 180 mg/kg
- LD50 (lethality) (in vivo [5]): 1104.62 mg/kg
- HD50 (righting reflex) (in vivo [6]; mice, i.p.): 885.53 mg/kg
- Slope, regression line, HD50 (righting reflex) (in vivo [6]; mice, i.p.): 12.46
- Time of Test / time of peak toxicity, righting reflex (in vivo [6]; mice, i.p.): 1/4
- Time of Test / time of peak effect (TPE), MES [7]: 1/4

Molecule: FC(F)(F)c1ccc(N2N=NCC2c2ccccc2Cl)cc1 (stereo not drawn) [Compound 2]
- Anticonvulsant Activity Group Classification [1]: II (Class II compounds show anticonvulsant activity at doses greater than 100 mg/kg or show activity at 100 mg/kg which is not reinforced by similar activity at 300 mg/kg)

Molecule: C1CCc2nnnn2CC1 [Metrazol, pentylenetetrazole]
- ED97 ([3]; Mus musculus, sc, read-out: sc CD97 of Metrazol): 85 mg/kg

Molecule: CCC1(C)CC(=O)NC1=O (stereo not drawn) [Ethosuximide, ethosuximide]
- effectiveness by the sc Met test ([3]; Phase V, mice, i.p.): effective by the sc Met, sc Bic, and sc Pic tests
- ED50 sc Met ([3]; mice, i.p.): 130.35 mg/kg
- ED50 scMet ([3]; mice, p.o.): 192.71 mg/kg
- ED50 [4]: 54 mg/kg
- animals protected, sc Strych test [8]: ≤ 62%
- effectiveness by the sc Pic test ([2]; Phase V, i.p.): effective by the sc Met, sc Bic, and sc Pic tests
- Slope, regression line, HD50 (righting reflex) (in vivo [6]; mouse, in vivo, ip): 16.43
- Time of Test / time of peak toxicity, righting reflex (in vivo [6]; mouse, in vivo, ip): 1/2
- Time of Test / time of peak effect (TPE), MES [7]: 1/2
- Time of Test / time of peak effect (TPE), sc Met [9]: 1/2
- Time of Test / time of peak effect (TPE), Rotorod ([10]; ip): 1/2
- TD50 (rotorod) ([10]; po): 879.21 mg/kg
- effectiveness by the sc Bic test [11]: had to be given in toxic doses to protect against sc Bic seizures

Molecule: CCOC(=O)c1ccc(N2N=NCC2c2ccncc2)cc1 (stereo not drawn) [Compound 8, 1-(p-Ethoxycarbonyl)-5-(4-pyridyl)-Δ^2-1,2,3-triazoline]
- Anticonvulsant Activity Group Classification [1]: II (Class II compounds show anticonvulsant activity at doses greater than 100 mg/kg or show activity at 100 mg/kg which is not reinforced by similar activity at 300 mg/kg)

Molecule: O=[N+]([O-])c1ccccc1C1CN=NN1c1cccc(Cl)c1 (stereo not drawn) [Compound 4, 1-(m-Chlorophenyl)5-(o-nitrophenyl)-Δ^2-1,2,3-triazoline]
- Anticonvulsant Activity Group Classification [1]: II (Class II compounds show anticonvulsant activity at doses greater than 100 mg/kg or show activity at 100 mg/kg which is not reinforced by similar activity at 300 mg/kg)

Molecule: c1ccc(N2N=NCC2c2ccccn2)cc1 (stereo not drawn) [Compound 13, 1-(phenyl)-5-(2-pyridyl)-Δ^2-1,2,3-triazoline]
- Anticonvulsant Activity Group Classification [1]: II (Class II compounds show anticonvulsant activity at doses greater than 100 mg/kg or show activity at 100 mg/kg which is not reinforced by similar activity at 300 mg/kg)

Molecule: FC(F)(F)c1cccc(N2N=NCC2c2ccncc2)c1 (stereo not drawn) [Compound 17, 1-(m-trifluoromethylphenyl)-5-(4-pyridyl)-Δ^2-1,2,3-triazoline]
- anticonvulsant potency [1]: most potent

Molecule: Fc1ccc(N2N=NCC2c2cccnc2)cc1Cl (stereo not drawn) [Compound 18, 1-(m-chloro-p-fluorophenyl)-5-(3-pyridyl)-Δ ^2-1,2,3-triazoline]
- Anticonvulsant Activity Group Classification [1]: II (Class II compounds show anticonvulsant activity at doses greater than 100 mg/kg or show activity at 100 mg/kg which is not reinforced by similar activity at 300 mg/kg)

Molecule: FC(F)(F)c1ccc(N2N=NCC2c2ccncc2)cc1 (stereo not drawn) [Compound 16, 1-(p-trifluoromethylphenyl)-5-(4-pyridyl)-Δ^2-1,2,3-triazoline]
- anticonvulsant potency [1]: most potent

Molecule: O=[N+]([O-])c1cccc(N2N=NCC2c2ccc(Cl)cc2Cl)c1 (stereo not drawn) [Compound 5, 1-(m-Nitrophenyl)-5-(2,4-dichlorophenyl)-Δ^2-1,2,3-triazoline]
- Anticonvulsant Activity Group Classification [1]: II (Class II compounds show anticonvulsant activity at doses greater than 100 mg/kg or show activity at 100 mg/kg which is not reinforced by similar activity at 300 mg/kg)

Molecule: O=[N+]([O-])c1cccc(N2N=NCC2c2ccc3ccccc3n2)c1 (stereo not drawn) [Compound 15, 1-(m-Nitrophenyl)-5-(2-quinolyl)-Δ^2-1,2,3-triazoline]
- Anticonvulsant Activity Group Classification [1]: II (Class II compounds show anticonvulsant activity at doses greater than 100 mg/kg or show activity at 100 mg/kg which is not reinforced by similar activity at 300 mg/kg)

Molecule: Clc1ccc(N2N=NCC2c2ccccn2)cc1 (stereo not drawn) [Compound 14, 1-(p-Chlorophenyl)-5-(2-pyridyl)-Δ^2-1,2,3-triazoline]
- Anticonvulsant Activity Group Classification [1]: II (Class II compounds show anticonvulsant activity at doses greater than 100 mg/kg or show activity at 100 mg/kg which is not reinforced by similar activity at 300 mg/kg)

Molecule: FC(F)(F)c1cccc(N2N=NCC2c2ccccc2Cl)c1 (stereo not drawn) [Compound 1, 1-m-trifluoromethylphenyl-5-(o-chlorophenyl)-Δ^2-1,2,3-triazoline]
- Anticonvulsant Activity Group Classification [1]: II (Class II compounds show anticonvulsant activity at doses greater than 100 mg/kg or show activity at 100 mg/kg which is not reinforced by similar activity at 300 mg/kg)

Molecule: Fc1ccc(N2N=NCC2c2ccncc2)cc1 (stereo not drawn) [Compound 10, 1-(p-Fluorophenyl)-5-(4-pyridyl)Δ^2-1,2,3-triazoline]
- anticonvulsant potency [1]: most potent

Molecule: c1ccc(N2N=NCC2c2ccncc2)cc1 (stereo not drawn) [Compound 7, 1-(Phenyl)-5-(4-pyridyl)-Δ^2-1,2,3-triazoline]
- protection ([1]; 600 mg/kg): 100%
- Anticonvulsant Activity Group Classification [1]: II (Class II compounds show anticonvulsant activity at doses greater than 100 mg/kg or show activity at 100 mg/kg which is not reinforced by similar activity at 300 mg/kg)
- signs of neurological deficit [1]: without any signs of neurological deficit

Molecule: Clc1cccc(Cl)c1C1CN=NN1c1ccc(Br)cc1 (stereo not drawn) [Compound 6, 1-(p-Bromophenyl)-5-(2,6-dichlorophenyl)-Δ^2-1,2,3-triazoline]
- Anticonvulsant Activity Group Classification [1]: II (Class II compounds show anticonvulsant activity at doses greater than 100 mg/kg or show activity at 100 mg/kg which is not reinforced by similar activity at 300 mg/kg)

Molecule: Cc1ccc(N2N=NCC2c2ccncc2)cc1 (stereo not drawn) [Compound 11, 1-(p-Methylphenyl)-5-(4-pyridyl)-Δ^2-1,2,3-triazoline]
- Anticonvulsant Activity Group Classification [1]: II (Class II compounds show anticonvulsant activity at doses greater than 100 mg/kg or show activity at 100 mg/kg which is not reinforced by similar activity at 300 mg/kg)
